The values below come from ChEMBL document CHEMBL4321793, “Can Cysteine Protease Cross-Class Inhibitors Achieve Selectivity?” (J Med Chem, 2019).

The target in one series is Cruzipain (Trypanosoma cruzi, UniProt P25779). Kind of series: Reversible inhibition of Trypanosoma cruzi cruzipain.
Series [1] addresses T1, Procathepsin L (Homo sapiens, UniProt P07711). Kind of series: Reversible inhibition of human cathepsin L.
Series [2] relates to human cathepsin L versus Trypanosoma cruzi cruzipain. The series is described as follows: Selectivity ratio of IC50 for reversible inhibition of human cathepsin L to IC50 for reversible inhibition of Trypanosoma cruzi cruzipain. The series is classed as toxicity. The conditions noted are these: read-out: Ratio IC50.
Series [3] relates to human cathepsin B versus Trypanosoma cruzi cruzipain. Kind of series: Selectivity ratio of IC50 for reversible inhibition of human cathepsin B to IC50 for reversible inhibition of Trypanosoma cruzi cruzipain. Type of series: toxicity. The conditions noted are these: read-out: Ratio IC50.
In another series the target is Cathepsin B (Homo sapiens, UniProt P07858). Kind of series: Reversible inhibition of human cathepsin B.
Series [4] concerns the target T1, Procathepsin L. Kind of series: Inhibition of human cathepsin L.
For another series, the target named is Rhodesain (Trypanosoma brucei rhodesiense, UniProt Q95PM0). Kind of series: Inhibition of Trypanosoma brucei rhodesiense rhodesain.
Rhodesain, sequence (Q95PM0 whole entry): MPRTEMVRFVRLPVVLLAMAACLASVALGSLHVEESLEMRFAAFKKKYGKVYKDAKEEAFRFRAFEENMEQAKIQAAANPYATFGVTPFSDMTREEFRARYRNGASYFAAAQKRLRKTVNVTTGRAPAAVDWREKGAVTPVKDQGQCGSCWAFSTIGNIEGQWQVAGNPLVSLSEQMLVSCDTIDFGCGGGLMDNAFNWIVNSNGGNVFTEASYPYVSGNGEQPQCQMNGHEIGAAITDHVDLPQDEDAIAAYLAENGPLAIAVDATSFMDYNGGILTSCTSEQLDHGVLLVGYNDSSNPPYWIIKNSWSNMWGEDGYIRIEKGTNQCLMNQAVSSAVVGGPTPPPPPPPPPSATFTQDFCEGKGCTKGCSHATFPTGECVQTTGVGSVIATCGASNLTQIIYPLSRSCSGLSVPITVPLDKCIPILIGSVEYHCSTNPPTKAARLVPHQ

SMILES strings stand for the structures.

For orientation: IC50 means the concentration that gives 50% inhibition. The Ki is a measure of affinity in units of concentration, obtained from inhibition or displacement. Read a low Ki as tighter binding.

T1 sequence (P07711 whole entry): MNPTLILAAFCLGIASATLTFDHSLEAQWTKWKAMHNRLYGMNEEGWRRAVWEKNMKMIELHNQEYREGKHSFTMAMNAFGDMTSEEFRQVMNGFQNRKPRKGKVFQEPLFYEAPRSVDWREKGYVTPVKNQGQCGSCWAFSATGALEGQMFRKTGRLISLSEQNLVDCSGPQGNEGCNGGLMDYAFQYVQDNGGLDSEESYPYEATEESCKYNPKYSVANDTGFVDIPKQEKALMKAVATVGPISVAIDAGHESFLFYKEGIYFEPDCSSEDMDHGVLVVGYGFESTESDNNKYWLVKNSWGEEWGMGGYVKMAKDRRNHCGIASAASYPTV
Cruzipain, sequence (P25779 whole entry): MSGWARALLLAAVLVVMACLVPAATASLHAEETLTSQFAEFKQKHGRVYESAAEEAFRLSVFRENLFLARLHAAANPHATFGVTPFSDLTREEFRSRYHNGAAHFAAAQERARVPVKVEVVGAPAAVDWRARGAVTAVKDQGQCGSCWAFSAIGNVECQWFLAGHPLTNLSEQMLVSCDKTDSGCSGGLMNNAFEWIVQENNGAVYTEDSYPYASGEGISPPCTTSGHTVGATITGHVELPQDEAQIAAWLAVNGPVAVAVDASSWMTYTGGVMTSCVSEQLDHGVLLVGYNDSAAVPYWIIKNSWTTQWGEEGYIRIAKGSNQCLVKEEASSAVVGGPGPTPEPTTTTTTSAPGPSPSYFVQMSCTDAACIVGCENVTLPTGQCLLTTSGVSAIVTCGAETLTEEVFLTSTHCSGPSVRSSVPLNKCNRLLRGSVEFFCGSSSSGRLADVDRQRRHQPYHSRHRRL

As for `CC(C)(F)C[C@H](N[C@@H](c1ccc(-c2ccc(N3CCNCC3)cc2)cc1)C(F)(F)F)C(=O)NCC#N`, the concentration for half-maximal inhibition (IC50) on Cruzipain worked out at 0.8 nM; against Procathepsin L [1], 47 nM; at Cathepsin B, 1110 nM. The values for the selectivity ratio in series [2] and in series [3] were 58 and 1390, respectively.
Turning to `N#Cc1nc(N2CCOCC2)nc(N(Cc2ccc3c(c2)OCO3)C2CCCCC2)n1`, on Procathepsin L [4], the Ki was 33 nM.
In the case of `CCC[C@H]1CC[C@H](N(Cc2ccc3c(c2)OCO3)c2nc(C#N)nc(N3CCOCC3)n2)CC1`, the Ki came out at 690 nM on Procathepsin L [4] and 2 nM at Rhodesain.
